Results on seven molecules are retold here after US20250230193A1, “CYCLIC COMPOUND HAVING SELECTIVE KRAS INHIBITORY EFFECT ON HRAS AND NRAS” (CHUGAI SEIYAKU KABUSHIKI KAISHA, priority 2022, published 2025).

*1 amine or outer side, *2 acyl side, *3 side chain or, on linkers, in order; H or OH if unused. Where a SMILES comes first, the peptide text is derived from it. Bridges are numbered along the chain shown (N, C = ends). [ ]: non-standard residue; d: D form. The star is where a group is joined. hPhe(3-Cl-4-CF3) = N[C@@H](CCc1ccc(C(F)(F)F)c(Cl)c1)C(=O)O; X18 = C=CCCN([C@@H](Cc1ccc(C(F)(F)F)cc1)C(=O)[*:2])[*:1]; NPrPhe(4-CF3) = CCCN[C@@H](Cc1ccc(C(F)(F)F)cc1)C(=O)O; NMeGly(cPent) = CN[C@H](C(=O)O)C1CCCC1; NMeD = CN[C@@H](CC(=O)O)C(=O)O; NMeL = CN[C@@H](CC(C)C)C(=O)O; Morpholide = C1CN(*)CCO1; NMeA = CN[C@@H](C)C(=O)O; Ac5c = NC1(C(=O)O)CCCC1; Aze = O=C(O)[C@@H]1CCN1; Aib = CC(C)(N)C(=O)O; Sar = CNCC(=O)O

In assay [1] the target is GDP-bound NRAS wild-type protein (Homo sapiens, UniProt P01111). Kind of assay: Binding to NRAS by surface plasmon resonance (SPR), Single Cycle Kinetics. The settings on record: for NRAS/KRAS (ratio of KD value with respect to NRAS to KD value with respect to KRAS): GDP-bound NRAS wild-type vs GDP-bound KRAS wild-type; for NRAS/KRAS (ratio of KD value with respect to NRAS to KD value with respect to KRAS) / NRAS/KRAS (ratio of KD for GDP-bound NRAS wild-type to KD for KRAS): SPR. In general terms: Surface plasmon resonance follows binding to a sensor surface in real time, without labels.
Chain of GDP-bound NRAS wild-type protein (P01111 whole entry): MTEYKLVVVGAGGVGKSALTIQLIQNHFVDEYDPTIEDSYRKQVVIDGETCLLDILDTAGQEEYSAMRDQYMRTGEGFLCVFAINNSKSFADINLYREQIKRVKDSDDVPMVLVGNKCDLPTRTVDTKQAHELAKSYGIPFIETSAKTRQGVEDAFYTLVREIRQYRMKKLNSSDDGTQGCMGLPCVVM

For assay [2], the target named is GDP-bound HRAS wild-type protein (Homo sapiens, UniProt P01112). Briefly: Binding to HRAS by surface plasmon resonance (SPR), Single Cycle Kinetics. The settings on record: for HRAS/KRAS (ratio of KD value with respect to HRAS to KD value with respect to KRAS): GDP-bound HRAS wild-type vs GDP-bound KRAS wild-type; for HRAS/KRAS (ratio of KD value with respect to HRAS to KD value with respect to KRAS) / HRAS/KRAS (ratio of KD for GDP-bound HRAS wild-type to KD for KRAS): SPR.
Chain of GDP-bound HRAS wild-type protein (P01112 whole entry): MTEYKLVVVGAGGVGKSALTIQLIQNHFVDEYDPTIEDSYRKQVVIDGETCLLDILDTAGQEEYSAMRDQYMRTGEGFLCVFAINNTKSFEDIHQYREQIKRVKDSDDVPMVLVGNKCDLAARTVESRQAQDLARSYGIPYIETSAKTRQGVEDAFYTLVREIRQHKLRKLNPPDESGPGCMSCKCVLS

With `CCO[C@@H]1C[C@H]2C(=O)NC3(CCC3)C(=O)N(C)[C@@H](C3CCCC3)C(=O)N(C)[C@H](C(=O)N(C)C)CC(=O)N(C)[C@@H](C)C(=O)N[C@@H]([C@@H](C)CC)C(=O)N(C)CC(=O)N(C)[C@H]3C/C=C\CCN(C3=O)[C@@H](Cc3ccc(C(F)(F)F)cc3)C(=O)N(C)CC(=O)N[C@@H](CCc3cc(F)c(C(F)(F)F)c(F)c3)C(=O)N2C1` [PP1108], the “NRAS/KRAS (ratio of KD value with respect to NRAS to KD value with respect to KRAS)” value in assay [1] (KD ratio) was “A (a compound having 10 or more and less than 20 is denoted as A)”. The “HRAS/KRAS (ratio of KD value with respect to HRAS to KD value with respect to KRAS)” value in assay [2] (KD ratio) is “A (a compound having 10 or more and less than 20 is denoted as A)”.
As to `CCC[C@H]1C(=O)N[C@@H]([C@@H](C)CC)C(=O)N(C)CC(=O)N(C)[C@H]2C/C=C\CCN(C2=O)[C@@H](Cc2ccc(C(F)(F)F)cc2)C(=O)N(C)CC(=O)N[C@@H](CCc2ccc3sc(C)c(C)c3c2)C(=O)N2C[C@H](OCC)C[C@H]2C(=O)NC2(CC(C)(C)C2)C(=O)N(C)[C@@H](C2CCCC2)C(=O)N(C)[C@H](C(=O)N(C)C)CC(=O)N1C` [PP2889], in assay [1] (KD ratio NRAS/KRAS, class symbols), the “NRAS/KRAS (ratio of KD value with respect to GDP-bound NRAS wild-type protein to KD value with respect to KRAS)” value is “A (a compound having 10 or more and less than 20 is denoted as A)”. Also, the “HRAS/KRAS (ratio of KD value with respect to GDP-bound HRAS wild-type protein to KD value with respect to KRAS)” value in assay [2] (KD ratio HRAS/KRAS, class symbols) is “A (a compound having 10 or more and less than 20 is denoted as A)”.
On to `C=CCCN1C(=O)[C@@H]2CCN2C(=O)[C@H](C)N(C)C(=O)[C@H]([C@@H](C)CC)NC(=O)[C@H](CC(C)C)N(C)C(=O)C[C@@H](C(=O)N2CCOCC2)N(C)C(=O)[C@H](C2CCCC2)N(C)C(=O)C2(CCCC2)NC(=O)[C@@H]2CCCN2C(=O)[C@H](CCc2ccc(C(F)(F)F)c(Cl)c2)NC(=O)CN(C)C(=O)[C@@H]1Cc1ccc(C(F)(F)F)cc1` [PP0115] ([NMeL]I[NMeA][Aze][X18][Sar][hPhe(3-Cl-4-CF3)]P[Ac5c][NMeGly(cPent)][NMeD]-Morpholide; lactam N-11), for which, in assay [1] (KD ratio NRAS/KRAS), the “NRAS/KRAS (ratio of KD for GDP-bound NRAS wild-type to KD for KRAS)” value was “C (A compound having a KD ratio of 0.1 or more and less than 3 is denoted as C)”. Also, the “HRAS/KRAS (ratio of KD for GDP-bound HRAS wild-type to KD for KRAS)” value in assay [2] (KD ratio HRAS/KRAS) was “C (A compound having a KD ratio of 0.1 or more and less than 3 is denoted as C)”.
As for `CCCOC[C@H]1C(=O)N[C@@H]([C@@H](C)CC)C(=O)N(C)CC(=O)N(C)[C@H]2C/C=C\CCN(C2=O)[C@@H](Cc2ccc(C)cc2)C(=O)N(C)CC(=O)N[C@@H](CCc2cc(F)c(C(F)(F)F)c(F)c2)C(=O)N2C[C@H](CCC)C[C@H]2C(=O)NC2(CC(C)(C)C2)C(=O)N(C)[C@@H](C2CCCC2)C(=O)N(C)[C@H](C(=O)N(C)C)CC(=O)N1C` [PP2203], the “NRAS/KRAS (ratio of KD value with respect to NRAS to KD value with respect to KRAS)” value in assay [1] is “A (a compound having 10 or more and less than 20 is denoted as A)”. Besides, the “HRAS/KRAS (ratio of KD value with respect to HRAS to KD value with respect to KRAS)” value in assay [2] was “A (a compound having 10 or more and less than 20 is denoted as A)”.
With `C#CC[C@H]1C(=O)N[C@@H]([C@@H](C)CC)C(=O)N(C)CC(=O)N(C)[C@H]2C/C=C\CCN(C2=O)[C@@H](Cc2ccc(C(F)(F)F)cc2)C(=O)N(C)CC(=O)N[C@@H](CCc2ccc(C(F)(F)F)c(OC)c2)C(=O)N2C[C@H](OCC)C[C@H]2C(=O)NC2(CC(C)(C)C2)C(=O)N(C)[C@@H](C2CCCC2)C(=O)N(C)[C@H](C(=O)N(C)CCC)CC(=O)N1C` [PP2053], the “NRAS/KRAS (ratio of KD value with respect to NRAS to KD value with respect to KRAS)” value in assay [1] was “A (a compound having 10 or more and less than 20 is denoted as A)”. Also, the “HRAS/KRAS (ratio of KD value with respect to HRAS to KD value with respect to KRAS)” value in assay [2] was “A (a compound having 10 or more and less than 20 is denoted as A)”.
Turning to `CCOC[C@H]1C(=O)N[C@@H]([C@@H](C)CC)C(=O)N2CCC[C@H]2C(=O)N(C)[C@H]2C/C=C\CCN(C2=O)[C@@H](CC2CCC(F)(F)CC2)C(=O)N(C)CC(=O)N[C@@H](CCc2ccc(C(F)(F)F)c(OC)c2)C(=O)N2C[C@H](OCC)C[C@H]2C(=O)N(C)C2(CCC2)C(=O)N(C)[C@@H](C(CC)CC)C(=O)N(C)[C@H](C(=O)N(C)C)CC(=O)N1C` [PP2355], the “NRAS/KRAS (ratio of KD value with respect to NRAS to KD value with respect to KRAS)” value in assay [1] was “AA (a compound having 20 or more is denoted as AA)”. Moreover, in assay [2], the “HRAS/KRAS (ratio of KD value with respect to HRAS to KD value with respect to KRAS)” value is “A (a compound having 10 or more and less than 20 is denoted as A)”.
With `CCCN1C(=O)CN(C)C(=O)CN(C)C(=O)[C@H]([C@@H](C)CC)NC(=O)[C@H](CC(C)C)N(C)C(=O)C[C@@H](C(=O)N2CCOCC2)N(C)C(=O)[C@H](C2CCCC2)N(C)C(=O)C(C)(C)NC(=O)[C@@H]2CCCN2C(=O)[C@H](CCc2ccc(C(F)(F)F)c(Cl)c2)NC(=O)CN(C)C(=O)[C@@H]1Cc1ccc(C(F)(F)F)cc1` [PP0230] ([NMeL]I[Sar][Sar][NPrPhe(4-CF3)][Sar][hPhe(3-Cl-4-CF3)]P[Aib][NMeGly(cPent)][NMeD]-Morpholide; lactam N-11), in assay [1] (KD ratio NRAS/KRAS), the “NRAS/KRAS (ratio of KD for GDP-bound NRAS wild-type to KD for KRAS)” value is “B (a compound having 3 or more and less than 10 is denoted as B)”. Also, the “HRAS/KRAS (ratio of KD for GDP-bound HRAS wild-type to KD for KRAS)” value in assay [2] (KD ratio HRAS/KRAS) is “C (A compound having a KD ratio of 0.1 or more and less than 3 is denoted as C)”.
